Consider 17 compounds from patent US7214694B2, “3-ox(adi)azolylpropanohydroxamic acids useful as procollagen C-proteinase inhibitors” (Pfizer Inc, priority 2001, dated 2007).

The subject of one series is PCP.
Assay: not given
The note with it: 0.2M NaCl; cited from earlier work.
`[Cl-].[Na+]` [NaCl]: the “activity of PCP, of that observed with the standard assay concentration of 0.15M” value (“activity of PCP, of that observed” below) is 66%.

Still in this series, the particulars now being: 0.3M NaCl; cited from earlier work.
Consider `[Cl-].[Na+]` [NaCl], for which the “activity of PCP, of that observed” value is recorded as 38%.

Still in this series, the particulars now being: 0.5M NaCl; cited from earlier work.
As for `[Cl-].[Na+]` [NaCl], the “activity of PCP, of that observed” value is 25%.

In the next series the target is T1, human PCP (Homo sapiens, UniProt P13497).
T1 construct: made in house; host or cells: CHO cells (stably transfected), purified from the supernatant
T1 sequence (P13497 121-986): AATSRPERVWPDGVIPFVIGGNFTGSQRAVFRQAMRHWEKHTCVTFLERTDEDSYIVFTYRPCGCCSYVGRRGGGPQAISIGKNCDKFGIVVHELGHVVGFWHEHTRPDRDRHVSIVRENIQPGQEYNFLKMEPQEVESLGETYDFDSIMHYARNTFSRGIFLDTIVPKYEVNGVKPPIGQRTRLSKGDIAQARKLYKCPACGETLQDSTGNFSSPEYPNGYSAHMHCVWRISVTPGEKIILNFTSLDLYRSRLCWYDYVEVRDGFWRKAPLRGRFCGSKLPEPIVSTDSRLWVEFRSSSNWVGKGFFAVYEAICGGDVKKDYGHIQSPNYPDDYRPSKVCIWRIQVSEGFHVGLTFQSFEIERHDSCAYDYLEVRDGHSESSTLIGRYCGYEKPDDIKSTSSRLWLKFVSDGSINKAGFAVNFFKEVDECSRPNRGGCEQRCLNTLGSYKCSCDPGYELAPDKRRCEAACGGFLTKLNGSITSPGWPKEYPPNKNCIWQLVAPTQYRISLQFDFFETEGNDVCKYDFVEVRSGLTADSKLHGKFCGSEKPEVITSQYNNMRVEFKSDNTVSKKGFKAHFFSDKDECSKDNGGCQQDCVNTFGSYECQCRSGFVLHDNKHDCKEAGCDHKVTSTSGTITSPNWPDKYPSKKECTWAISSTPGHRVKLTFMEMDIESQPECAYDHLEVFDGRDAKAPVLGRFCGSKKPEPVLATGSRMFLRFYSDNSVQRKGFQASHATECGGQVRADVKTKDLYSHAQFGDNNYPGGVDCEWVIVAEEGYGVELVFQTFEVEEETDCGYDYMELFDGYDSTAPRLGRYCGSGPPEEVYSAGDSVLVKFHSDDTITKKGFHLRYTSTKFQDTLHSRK
The experiment in a line: fluorogenic PCP cleavage assay (PCP inhibition). It is filed as biochemical. The note with it: fluorogenic substrate 3×10^−6 M, pH 7.6, 37° C. Here is the method: In order to determine potency of PCP inhibitors a fluorogenic PCP cleavage assay was used. This assay is based on the template of Beekman et al. (FEBS Letters (1996), 390: 221–225) using a fluorogenic substrate. The substrate (Dabcyl-Arg-Tyr-Tyr-Arg-Ala-Asp-Asp-Ala-Asn-Val-Glu(EDANS)-NH2) contains the cleavage site of human PCP (Hojima et al., J Biol Chem (1985), 260:15996–16003). […]. The assay was performed in 96-well black fluorimeter plates and fluorescence was read continuously in a fluorimeter over 2.5 hours (λex=340 nm, λem=485 nm) at a constant 37° C. with shaking. Release of the fluorogenic signal was in linear correlation to PCP activity. Reading of the mean velocity from 30 min after start of experiment until 2.5 hours was calculated by the Biolise software. IC50 values were calculated by plotting % inhibition values against compound concentration using Tessela add in for Excel spreadsheet.
As a reminder, the IC50 is the midpoint of a concentration-inhibition curve. Lower therefore signals inhibition by little substance. On to `O=C(C[C@@H](CCCC1CCCCC1)c1nc(CNS(=O)(=O)c2ccccn2)no1)NO` [Example 6, (3 R)-6-cyclohexyl-N-hydroxy-3-(3-[(2-pyridinylsulfonyl)amino]methyl-1,2,4-oxadiazol-5-yl)hexanamide], for which the IC50 was 0.107 µM. This lies in the sub-micromolar range.
As for `CC(C)(C)NS(=O)(=O)NCc1noc([C@H](CCCC2CCCCC2)CC(=O)NO)n1` [Example 17, (3 R)-3-[3-({[(tert-butylamino)sulfonyl]amino}methyl)-1,2,4-oxadiazol-5-yl]-6-cyclohexyl-N-hydroxyhexanamide], the IC50 was found to be 0.098 µM. This IC50 and that of the compound before are within 1.5-fold of each other.
Compound `Cc1oc([C@H](CCCC2CCCCC2)CC(=O)NO)nc1CN1CCOCC1` [Example 72, (3R)-6-cyclohexyl-N-hydroxy-3-[5-methyl-4-(4-morpholinylmethyl)-1,3-oxazol-2-yl]hexanamide] yielded an IC50 of 0.037 µM.

Test system in another series: not given
Assay: not given
Details: not given
Usually melting point stands for the temperature, or range, at which the solid turns liquid. Regarding `CCNCc1noc([C@H](CCCC2CCCCC2)CC(=O)NO)n1` [Example 32, (3R)-6-cyclohexyl-3-{3-[(ethylamino)methyl]-1,2,4-oxadiazol-5-yl}-N-hydroxyhexanamide], the melting point was in the range of 69.4 to 71.4 °C.
Still for that read-out and setting: under `CCCNCc1noc([C@H](CCCC2CCCCC2)CC(=O)NO)n1` [Example 33, (3R)-6-cyclohexyl-N-hydroxy-3-{3-[(propylamino)methyl]-1,2,4-oxadiazol-5-yl}hexanamide] stands 90.4 to 91.8 °C; under `CC(C)CNCc1noc([C@H](CCCC2CCCCC2)CC(=O)NO)n1` [Example 35, (3R)-6-cyclohexyl-N-hydroxy-3-{3-[(isobutylamino)methyl]-1,2,4-oxadiazol-5-yl}hexanamide], 97.8 to 99 °C; under `CCC(CC)NCc1noc([C@H](CCCC2CCCCC2)CC(=O)NO)n1` [Example 37, (3R)-6-cyclohexyl-3-(3-{[(1-ethylpropyl)amino]methyl}-1,2,4-oxadiazol-5-yl)-N-hydroxyhexanamide], 102.7 to 104.3 °C.
For `O=C(C[C@@H](CCCC1CCCCC1)c1nc(CNC2CCC2)no1)NO` [Example 39, (3R)-3-{3-[(cyclobutylamino)methyl]-1,2,4-oxadiazol-5-yl}-6-cyclohexyl-N-hydroxyhexanamide], the melting point was in the range of 82 to 83.9 °C.
The compound `O=C(C[C@@H](CCCC1CCCCC1)c1nc(CNC2CCCCC2)no1)NO` [Example 41, (3R)-6-cyclohexyl-3-{3-[(cyclohexylamino)methyl]-1,2,4-oxadiazol-5-yl}-N-hydroxyhexanamide] had a melting point of 127 °C.
`COCCCNCc1noc([C@H](CCCC2CCCCC2)CC(=O)NO)n1` [Example 45, (3R)-6-cyclohexyl-N-hydroxy-3-(3-{[(3-methoxypropyl)amino]methyl}-1,2,4-oxadiazol-5-yl)hexanamide]: the melting point is 60 °C.
The compound `O=C(C[C@@H](CCCC1CCCCC1)c1nc(CNC2CCOCC2)no1)NO` [Example 50, (3R)-6-cyclohexyl-N-hydroxy-3-{3-[(tetrahydro-2H-pyran-4-ylamino)methyl]-1,2,4-oxadiazol-5-yl}hexanamide] had a melting point of 108.9 to 110.3 °C.
Turning to `O=C(C[C@@H](CCCC1CCCCC1)c1nc(CN2CCC(O)CC2)no1)NO` [Example 64, (3R)-6-cyclohexyl-N-hydroxy-3-{3-[(4-hydroxy-1-piperidinyl)methyl]-1,2,4-oxadiazol-5-yl}hexanamide], the melting point is 85 °C.
`O=C(C[C@@H](CCCC1CCCCC1)c1nc(CN2CCOCC2)no1)NO` [Example 65, (3R)-6-cyclohexyl-N-hydroxy-3-[3-(4-morpholinylmethyl)-1,2,4-oxadiazol-5-yl]hexanamide] registered a melting point of 138 to 139 °C.
The same measure, in the same setting: under `O=C(C[C@@H](CCCC1CCCCC1)c1nc(CNC2CCCC2)co1)NO` [Example 69, (3R)-6-cyclohexyl-3-{4-[(cyclopentylamino)methyl]-1,3-oxazol-2-yl}-N-hydroxyhexanamide] stands 124 to 127 °C; under `O=C(C[C@@H](CCCC1CCCCC1)c1nc(CN2CCOCC2)co1)NO` [Example 70, (3R)-6-cyclohexyl-N-hydroxy-3-[4-(4-morpholinylmethyl)-1,3-oxazol-2-yl]hexanamide], 117 to 119 °C.
The same measure, in the same setting: the same measure for `Cc1oc([C@H](CCCC2CCCCC2)CC(=O)NO)nc1CNC1CCOCC1` [Example 71, (3R)-6-cyclohexyl-N-hydroxy-3-{5-methyl-4-[(tetrahydro-2H-pyran-4-ylamino)methyl]-1,3-oxazol-2-yl}hexanamide]: 108 to 110 °C.
